Test results published in article PMC6131501, “Urate transporter inhibitor lesinurad is a selective peroxisome proliferator-activated receptor gamma modulator (sPPARγM) in vitro” (Scientific Reports, 2018).
“Also recorded” adds a separate entry of the source. Read-outs that look alike come from different tables or passages of the source.

Tests used:
[1] = system: 3T3-L1 cells; assay: Cytotoxicity in adipocyte differentiation experiment; format: cell-based, murine; conditions: up to 50 μM (data not shown)
Method: For this, 3T3-L1 cells were treated with insulin, dexamethasone and isobutylmethylxanthine (IBMX) to induce their differentiation into mature adipocytes.

[2] = system: urate transporter 1 (URAT1); parameters: method as in PMID 27716403; conditions: cited from earlier work
[3] = molecular target: T1, PPARα (Homo sapiens, UniProt Q07869); assay: Gal4 hybrid reporter gene assay PPARα; format: cell-based
T1 construct: expressed in transfected cells; host or cells: HEK293T
T1 sequence (Q07869 239-466 limits assumed): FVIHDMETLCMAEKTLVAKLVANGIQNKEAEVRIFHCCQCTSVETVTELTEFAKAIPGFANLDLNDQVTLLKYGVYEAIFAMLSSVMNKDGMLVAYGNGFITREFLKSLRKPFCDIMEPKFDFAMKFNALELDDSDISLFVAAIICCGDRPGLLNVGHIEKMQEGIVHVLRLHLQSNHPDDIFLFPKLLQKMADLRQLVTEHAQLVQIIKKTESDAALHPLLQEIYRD
Description: These in vitro test systems are based on a constitutively expressed hybrid receptor composed of the ligand binding domain of the respective human nuclear receptor and the DNA binding domain of the yeast receptor Gal4. A Gal4-inducible firefly luciferase serves as reporter gene and a constitutively expressed renilla luciferase is used for normalization of transfection efficacy and internal toxicity control[18],[19]. […] The Gal4-fusion receptor plasmids pFA-CMV-hPPARα-LBD[50], pFA-CMV-hPPARγ-LBD[50], pFA-CMV-hPPARδ-LBD[50], pFA-CMV-hLXRα-LBD[51], pFA-CMV-hLXRβ-LBD[51], pFA-CMV-hRXRα-LBD[52], pFA-CMV-hRXRβ-LBD[52], pFA-CMV-hRXRγ-LBD[52], pFA-CMV-hRARα-LBD[52], pFA-CMV-hRARβ-LBD[52], pFA-CMV-hRARγ-LBD[52], pFA-CMV-hFXR-LBD[53], pFA-CMV-hVDR-LBD[52], pFA-CMV-hCAR-LBD[52] and pFA-CMV-hPXR-LBD[52] coding for the hinge region and ligand binding domain (LBD) of the canonical isoform of the respective nuclear receptor have been reported previously. pFR-Luc (Stratagene) was used as reporter plasmid and pRL-SV40 (Promega) for normalization of transfection efficiency and cell growth.
(§1) HEK293T cells were grown in DMEM high glucose, supplemented with 10% FCS, sodium pyruvate (1 mM), penicillin (100 U/mL) and streptomycin (100 μg/mL) at 37 °C and 5% CO2. The day before transfection, HEK293T cells were seeded in 96-well plates (3·10^4 cells/well). Before transfection, medium was changed to Opti-MEM without supplements. Transient transfection was carried out using Lipofectamine LTX reagent (Invitrogen) according to the manufacturer’s protocol with pFR-Luc (Stratagene), pRL-SV40 (Promega) and the corresponding Gal4-fusion nuclear receptor plasmid. 5 h after transfection, medium was changed to Opti-MEM supplemented with penicillin (100 U/mL), streptomycin (100 μg/mL), now additionally containing 0.1% DMSO and the respective test compound or 0.1% DMSO alone as untreated control. Each concentration was tested in duplicates and each experiment was repeated independently at least three times. Following overnight (12-14 h) incubation with the test compounds, cells were assayed for luciferase activity using Dual-Glo™ Luciferase Assay System (Promega) according to the manufacturer’s protocol. Luminescence was measured with an Infinite M200 luminometer (Tecan Deutschland GmbH). […] Fold activation was obtained by dividing the mean RLU of a test compound at a respective concentration by the mean RLU of untreated control.

[4] = cited from earlier work; for peak plasma levels: oral dose of 200 mg
[5] = molecular target: T2, full-length PPARγ (Homo sapiens, UniProt P37231); assay: Full-length PPARγ reporter gene assay; format: cell-based
T2 construct: host or cells: HEK293T
Method: as §1, with “Transient transfection was carried out using Lipofectamine LTX reagent (Invitrogen) according to the manufacturer’s protocol with pFR-Luc (Stratagene), pRL-SV40 (Promega) and the corresponding Gal4-fusion nuclear receptor plasmid.” left out

[6] = Control reporter experiment in absence of a hybrid receptor; format: cell-based; conditions: 30 μM, w/o hybrid receptor
Description: These in vitro test systems are based on a constitutively expressed hybrid receptor composed of the ligand binding domain of the respective human nuclear receptor and the DNA binding domain of the yeast receptor Gal4. A Gal4-inducible firefly luciferase serves as reporter gene and a constitutively expressed renilla luciferase is used for normalization of transfection efficacy and internal toxicity control[18],[19].

[7] = system: 3T3-L1 adipocytes; assay: Differentiation of 3T3-L1 adipocytes, Oil Red O staining; format: cell-based, murine; conditions: rosiglitazone 2 μM; lesinurad up to 50 μM
Method: For this, 3T3-L1 cells were treated with insulin, dexamethasone and isobutylmethylxanthine (IBMX) to induce their differentiation into mature adipocytes. […] 3T3-L1 cells were subcultured in DMEM containing 10% newborn calf serum in a humidified atmosphere at 37 °C, 5% CO2. Cells were differentiated into adipocytes within 14 days according to the method[54] reported by Zebisch and colleagues. In brief, cells were seeded in 6-well plates ([…]). […] At day 5, medium was changed to contain only insulin for another two days. Cells were then kept for lipid droplet accumulation in basal medium without additions until day 15. […] Differentiation of 3T3-L1 cells to adipocytes was confirmed by Oil Red O staining. For this, cells were washed with PBS and then fixed for 60 min with a formaldehyde solution (4% in PBS). Subsequently, cells were rinsed with 60% isopropanol and incubated with Oil Red O solution (0.3%) for 120 min.

[8] = system: PPARγ; parameters: method as in PMID 27716403; conditions: up to 100 μM; non-human cell line overexpressing PPARγ; cited from earlier work

T2 sequence (P37231 whole entry): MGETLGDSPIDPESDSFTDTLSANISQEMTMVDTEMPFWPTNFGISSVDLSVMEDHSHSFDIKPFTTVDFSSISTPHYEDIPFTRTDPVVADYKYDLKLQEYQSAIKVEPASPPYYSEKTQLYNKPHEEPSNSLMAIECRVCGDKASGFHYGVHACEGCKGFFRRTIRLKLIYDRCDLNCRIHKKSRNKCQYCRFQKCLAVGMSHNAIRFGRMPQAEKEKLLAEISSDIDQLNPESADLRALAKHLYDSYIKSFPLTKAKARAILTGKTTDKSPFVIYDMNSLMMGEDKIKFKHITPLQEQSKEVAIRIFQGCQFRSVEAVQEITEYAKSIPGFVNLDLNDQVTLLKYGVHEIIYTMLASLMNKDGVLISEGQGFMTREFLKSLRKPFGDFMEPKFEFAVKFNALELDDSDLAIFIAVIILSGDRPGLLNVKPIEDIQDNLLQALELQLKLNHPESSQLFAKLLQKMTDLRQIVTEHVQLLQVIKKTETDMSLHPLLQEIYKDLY

O=C(O)CSc1nnc(Br)n1-c1ccc(C2CC2)c2ccccc12 [lesinurad]
cytotoxicity [1]: no cytotoxicity
IC50 [2]: 3.5 µM
Gal4-PPARα transactivation ([3]; 30 μM, compared with PPARγ): lower efficacy
EC50 ([3]; Gal4 hybrid reporter, HEK293T, 12-14 h, mean ± SEM, at least three experiments): 20.8 ± 0.7 µM
PPARα activation efficacy ([3]; vs. 1 µM of PPARα agonist GW7647): 13.5 ± 0.5%
free concentration ([4]; free plasma concentration after protein binding): 300 to 600 nM
peak plasma levels ([4]; ref 40): 15 µM
peak plasma levels ([4]; ref 41): 17 µM
mean peak plasma levels ([4]; single 600 mg oral dose, healthy men): 22 µg/mL
transactivation efficacy on full-length PPARγ ([5]; compared to reference agonists): higher transactivation efficacy than pioglitazone and rosiglitazone
EC50 ([5]; full-length human PPARγ, HEK293T, mean ± SEM): 21 ± 2 µM
reporter transactivation in absence of a hybrid receptor [6]: no reporter transactivation
lipid accumulation during differentiation (Oil Red O staining) [7]: lacked this adipogenic effect; also recorded: does not induce fat accumulation
PPARγ activation reported by Miner et al. [8]: does not activate PPARγ
